Laboratory results: BigSolDB 2.1

## CCCCCc1ccc2c(c1)C(=O)c1ccccc1C2=O
In 2-butanone, 288.15 K
  solubility (mole fraction): 0.0341
In 2-butanone, 293.15 K
  solubility (mole fraction): 0.0431
In 2-butanone, 298.15 K
  solubility (mole fraction): 0.0513
In 2-butanone, 303.15 K
  solubility (mole fraction): 0.0587
In 2-butanone, 308.15 K
  solubility (mole fraction): 0.0683
In 2-butanone, 313.15 K
  solubility (mole fraction): 0.0828
In 2-butanone, 318.15 K
  solubility (mole fraction): 0.105
In 2-butanone, 323.15 K
  solubility (mole fraction): 0.129
In MIBK, 288.15 K
  solubility (mole fraction): 0.0433
In MIBK, 293.15 K
  solubility (mole fraction): 0.0539
In MIBK, 298.15 K
  solubility (mole fraction): 0.0601
In MIBK, 303.15 K
  solubility (mole fraction): 0.0676
In MIBK, 308.15 K
  solubility (mole fraction): 0.0744
In MIBK, 313.15 K
  solubility (mole fraction): 0.0836
In MIBK, 318.15 K
  solubility (mole fraction): 0.104
In MIBK, 323.15 K
  solubility (mole fraction): 0.126
In acetone, 288.15 K
  solubility (mole fraction): 0.0225
In acetone, 293.15 K
  solubility (mole fraction): 0.0299
In acetone, 298.15 K
  solubility (mole fraction): 0.0376
In acetone, 303.15 K
  solubility (mole fraction): 0.0443
In acetone, 308.15 K
  solubility (mole fraction): 0.0517
In acetone, 318.15 K
  solubility (mole fraction): 0.0815
In acetone, 323.15 K
  solubility (mole fraction): 0.105
In acetonitrile, 288.15 K
  solubility (mole fraction): 0.00299
In acetonitrile, 293.15 K
  solubility (mole fraction): 0.00478
In acetonitrile, 298.15 K
  solubility (mole fraction): 0.00811
In acetonitrile, 303.15 K
  solubility (mole fraction): 0.0127
In acetonitrile, 308.15 K
  solubility (mole fraction): 0.0203
In acetonitrile, 318.15 K
  solubility (mole fraction): 0.051
In acetonitrile, 323.15 K
  solubility (mole fraction): 0.0786
In ethanol, 288.15 K
  solubility (mole fraction): 0.0029
In ethanol, 293.15 K
  solubility (mole fraction): 0.00392
In ethanol, 298.15 K
  solubility (mole fraction): 0.00531
In ethanol, 303.15 K
  solubility (mole fraction): 0.00725
In ethanol, 308.15 K
  solubility (mole fraction): 0.00988
In ethanol, 313.15 K
  solubility (mole fraction): 0.0145
In ethanol, 318.15 K
  solubility (mole fraction): 0.0195
In ethanol, 323.15 K
  solubility (mole fraction): 0.0265
In ethyl acetate, 288.15 K
  solubility (mole fraction): 0.0501
In ethyl acetate, 293.15 K
  solubility (mole fraction): 0.0583
In ethyl acetate, 298.15 K
  solubility (mole fraction): 0.0663
In ethyl acetate, 303.15 K
  solubility (mole fraction): 0.0761
In ethyl acetate, 308.15 K
  solubility (mole fraction): 0.088
In ethyl acetate, 313.15 K
  solubility (mole fraction): 0.101
In ethyl acetate, 318.15 K
  solubility (mole fraction): 0.12
In ethyl acetate, 323.15 K
  solubility (mole fraction): 0.151
In isopropyl acetate, 288.15 K
  solubility (mole fraction): 0.0522
In isopropyl acetate, 293.15 K
  solubility (mole fraction): 0.0598
In isopropyl acetate, 298.15 K
  solubility (mole fraction): 0.0708
In isopropyl acetate, 303.15 K
  solubility (mole fraction): 0.0842
In isopropyl acetate, 308.15 K
  solubility (mole fraction): 0.0974
In isopropyl acetate, 313.15 K
  solubility (mole fraction): 0.114
In isopropyl acetate, 318.15 K
  solubility (mole fraction): 0.137
In isopropyl acetate, 323.15 K
  solubility (mole fraction): 0.163
In methanol, 288.15 K
  solubility (mole fraction): 0.00131
In methanol, 293.15 K
  solubility (mole fraction): 0.00199
In methanol, 298.15 K
  solubility (mole fraction): 0.00271
In methanol, 303.15 K
  solubility (mole fraction): 0.00364
In methanol, 308.15 K
  solubility (mole fraction): 0.00502
In methanol, 313.15 K
  solubility (mole fraction): 0.00682
In methanol, 318.15 K
  solubility (mole fraction): 0.00928
In methanol, 323.15 K
  solubility (mole fraction): 0.0131
In n-butanol, 288.15 K
  solubility (mole fraction): 0.00826
In n-butanol, 293.15 K
  solubility (mole fraction): 0.0111
In n-butanol, 298.15 K
  solubility (mole fraction): 0.0154
In n-butanol, 303.15 K
  solubility (mole fraction): 0.021
In n-butanol, 308.15 K
  solubility (mole fraction): 0.0275
In n-butanol, 313.15 K
  solubility (mole fraction): 0.0346
In n-butanol, 318.15 K
  solubility (mole fraction): 0.0446
In n-butanol, 323.15 K
  solubility (mole fraction): 0.0626
In n-propanol, 288.15 K
  solubility (mole fraction): 0.00541
In n-propanol, 293.15 K
  solubility (mole fraction): 0.00743
In n-propanol, 298.15 K
  solubility (mole fraction): 0.0102
In n-propanol, 303.15 K
  solubility (mole fraction): 0.0144
In n-propanol, 308.15 K
  solubility (mole fraction): 0.02
In n-propanol, 313.15 K
  solubility (mole fraction): 0.0265
In n-propanol, 318.15 K
  solubility (mole fraction): 0.0346
In n-propanol, 323.15 K
  solubility (mole fraction): 0.049
In sec-butanol, 288.15 K
  solubility (mole fraction): 0.00259
In sec-butanol, 293.15 K
  solubility (mole fraction): 0.00378
In sec-butanol, 298.15 K
  solubility (mole fraction): 0.0056
In sec-butanol, 303.15 K
  solubility (mole fraction): 0.00842
In sec-butanol, 308.15 K
  solubility (mole fraction): 0.012
In sec-butanol, 313.15 K
  solubility (mole fraction): 0.0182
In sec-butanol, 318.15 K
  solubility (mole fraction): 0.0257
In sec-butanol, 323.15 K
  solubility (mole fraction): 0.0388
